The target of one series is T1, A2A adenosine receptor (Homo sapiens, UniProt P29274).
T1 construct: purchased PerkinElmer Research Products (Boston, Mass.); host or cells: HEK-293 cells, stably transfected; membrane preparation
The experiment in a line: Radioligand binding test ([3H]CGS21680 displacement, hA2A HEK-293 cell membrane). The following applies: calculated from IC50 by Cheng and Prusoff equation; [3H]CGS21680 25 nM, Km 22 nM; 25° C., 90 minutes. On the procedure:
[3H]CGS21680 (2-[p-(2-carboxyethyl)phenylethylamino]-5′-N-ethylformamidoadenosine, [carboxy-1-ethyl-3H(N)]; 250 μCi) was purchased from PerkinElmer Research Products (Boston, Mass.).
Cell membrane stably transfected with (human) A2A adenosine receptor was prepared in HEK-293 cells. The cell membrane was obtained from PerkinElmer Research Products (Boston, Mass.).
CGS21680 (2-[p-(2-carboxyethyl)phenylethylamino]-5′-N-ethylformamidoadenosine) was purchased from Selleck (Shanghai, CN).
The A2A adenosine receptors used were all expressed in the cell membrane. […] The specific binding percentage of [3H]CGS21680 was calculated according to the CPM value, % specific binding of [3H]CGS21680=(CPMsample−CPMLow Control)/(CPMHigh Control−CPMLow Control)*100, in which
High Control was 0.5% DMSO, Low Control was 100 μM CGS21680. The IC50 value was calculated based on the compound concentration and the specific binding percentage of [3H]CGS21680 by curve fitting.
The inhibition constant (Ki) value was calculated from the IC50 value according to the Cheng and Prusoff equation, Ki=IC50/(1+[S]/Km), in which [S] was the concentration of the radioligand (25 nM), and Km was the human A2AAR dissociation constant (22 nM) of [3H]CGS21680. The inhibition constant Ki values for Compounds 1 to 20 of the present invention binding to A2A adenosine receptor were shown in Table 1.

The test system of the next series is blood-brain barrier. As to the kind of experiment: Animal experiment of blood-brain barrier opening (FITC-Dextran in brain of SD rats). In kind it is in vivo. On the procedure: Fluorescein-labeled dextran FITC-Dextran (CAS: 60842-46-8) with a molecular weight of 10,000 MW was purchased from […] (Shanghai) Chemical Industry Development Co., Ltd.; PBS solution and experimental animal SD rats were obtained from commercial sources. FITC-Dextran solution was prepared with PBS to obtain six concentration gradients (0.001, 0.01, 0.1, 1, 0.5, 10 μg/ml), and a FITC-Dextran concentration standard curve was prepared by using microplate reader (λex=490 nm, λem=520 nm); 10 mg/ml FITC-Dextran solution was separately prepared, Compound 5 was added to PBS solution to make 1 mg/ml solution, 1 ml of 10 mg/ml FITC-Dextran solution and 1 ml of 1 mg/ml Compound 5 PBS solution were taken to make an administration solution; 1 ml of 10 mg/ml FITC-Dextran solution and 1 ml of PBS solution taken to make a blank control solution; 6 SD rats were injected with 2 ml of the administration solution respectively in the tail vein, while another 6 SD rats were injected with 2 ml of the blank control solution in the tail vein; after 30 minutes, the brain tissues of all SD rats were taken out, homogenized and centrifuged at 10,000 rpm for 15 minutes, and the supernatants were taken for testing; and a microplate reader (λex=490 nm, λem=520 nm) was used for the fluorescence detection of the solutions to be tested. […]

For series [1], the target named is human adenosine receptor A2A (Homo sapiens, UniProt P29274). The experiment in a line: Adenosine receptor A2A cAMP test (LANCE Ultra cAMP, hADORA2A-HEK293 cells). It counts as cell-based. The following applies: for hA2AAR agonist function (in words): conclusion from cAMP test; for EC50: hADORA2A-HEK293 cells, 300 cells/well, stimulation of cyclic adenosine monophosphate. An excerpt: Experimental reagents and consumables: DMEM/F12, G418, Penicillin-Streptomycin, Versene Solution, HEPES, Hank's Buffered Saline Solution, PBS (pH 7.4, 1×, sterile), FBS, BSA Stabilizer 7.5%, Rolipram, NECA, were purchased from Gibico, Hyclone and Sigma, respectively. LANCE® Ultra cAMP kit (Eu-cAMP tracer, Ulight-anti-cAMP reagent, cAMP detection buffer) and hADORA2A-HEK293 cells were purchased from PerkinElmer Research Products (Boston, Mass.). All other reagents were of analytical grade and obtained from commercial sources. 384-well polypropylene microplate and 384-well white solid plate were purchased from Labcyte and Corning, respectively.
Sequence of human adenosine receptor A2A (P29274 whole entry): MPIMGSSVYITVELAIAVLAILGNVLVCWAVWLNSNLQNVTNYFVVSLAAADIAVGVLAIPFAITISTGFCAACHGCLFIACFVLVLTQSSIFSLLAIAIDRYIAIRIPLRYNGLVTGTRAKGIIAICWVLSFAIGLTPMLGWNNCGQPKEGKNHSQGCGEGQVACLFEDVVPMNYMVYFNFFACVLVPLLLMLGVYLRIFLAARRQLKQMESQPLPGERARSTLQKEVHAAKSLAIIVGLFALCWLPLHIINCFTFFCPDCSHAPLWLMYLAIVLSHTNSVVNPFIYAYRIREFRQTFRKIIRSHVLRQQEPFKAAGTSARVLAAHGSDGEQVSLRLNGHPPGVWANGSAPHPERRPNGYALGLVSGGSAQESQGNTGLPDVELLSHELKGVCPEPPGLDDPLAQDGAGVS
Cells stably expressing human adenosine receptor A2A (hADORA2A-HEK293 cells) were cultured in DMEM/F12 medium containing 10% FBS, 1× Penicillin-Streptomycin and 400 μg/ml G418 in a 37° C., 5% CO2 environment. Before the experiment, the cells were digested with Versene solution, and the cells were collected by centrifugation at 200 g at room temperature for 5 minutes, and finally resuspended with detection buffer (Hank's buffered saline solution, containing 5 mM HEPES, 0.1% BSA stabilizer and 10 μM Rolipram, pH 7.4). TECAN automated pipetting workstation was used to prepare a compound source plate by 3-fold diluting the compound in a 384-well polypropylene microplate with DMSO to form 11 concentration points, in which the 11 concentration points of the compound were 10 mM, 3.33 mM, 1.11 mM, 0.37 mM, 0.12 mM, 0.041 mM, 0.013 mM, 4.57×10^−3 mM, 1.52×10^−3 mM, 5×10^−4 mM and 1.7×10^−4 mM, respectively. Echo ultrasonic pipetting system (Labcyte) was used to transfer the test compound from the compound source plate to the detection plate, in which the volume of the compound transferred was 10 nl/well. The hADORA2A-HEK293 cell suspension was diluted with detection buffer to 30,000 cells/ml, and the cell suspension was transferred to the detection plate at a volume of 10 μl/well (300 cells/well). The detection plate was centrifuged at 150 g for 1 minute and pre-incubated at room temperature for 30 minutes. […] EnVison microplate reader (EnVision multimode plate reader, PerkinElmer) was used to test the level of cyclic adenosine monophosphate in the final solution (λex=320 nm, λem=665 nm & 615 nm). The EC50 (nM) value of the compound interacting with A2A adenosine receptor to stimulate the production of a level of cyclic adenosine monophosphate was calculated. The compound A2A receptor agonist titer was expressed as the EC50 (nM) value of the compound interacting with the A2A adenosine receptor to stimulate the production of a level of cyclic adenosine monophosphate.
(In TR-FRET formats the signal depends on donor and acceptor labels being close together.)

The text below walks through data of patent US20220380402A1, “6-HYDRAZINOADENOSINE COMPOUNDS WITH A2A ADENOSINE RECEPTOR AGONIST ACTIVITY” (ACADEMY OF MILITARY MEDICAL SCIENCES, priority 2019, published 2022).

T1 sequence (P29274 whole entry): as above

The Ki is a dissociation constant, usually derived from enzyme kinetics or from competition with a known ligand. One may read the melting point as the temperature of the solid-liquid transition. For the compound `OC[C@H]1O[C@@H](n2cnc3c(N/N=C/c4ccc(-c5ccc(Br)cc5)o4)ncnc32)[C@H](O)[C@@H]1O` [Compound 5, (2R,3R,4S,5R)-2-{6-{2-{(E)-[5-(4-bromophenyl)furan-2-yl]methylene}hydrazino}-9H-purin-9-yl}-5-(hydroxymethyl)tetrahydrofuran-3,4-diol], the melting point was 162 °C. Further, at A2A adenosine receptor, the Ki is 0.353 µM. In addition, the “Opening of the blood-brain barrier (in words)” value in the series on blood-brain barrier (SD rats, FITC-Dextran co-administered by tail vein, 30 minutes) was “could open the blood-brain barrier”.

A word on the EC50: it is the concentration giving half of the maximal effect. A high value points to a less potent agent. Turning to `OC[C@H]1O[C@@H](n2cnc3c(N/N=C/c4ccc(OCc5ccc(F)cc5)cc4)ncnc32)[C@H](O)[C@@H]1O` [Compound 7, (2R,3R,4S,5R)-2-{6-{2-{(E)-4-[(4-fluorobenzyl)oxy]benzylidene}hydrazino}9H-purin-9-yl}-5-(hydroxymethyl)tetrahydrofuran-3,4-diol], the melting point came to 206 °C. Also, at A2A adenosine receptor, the Ki is 0.0138 µM. Further, in series [1], the “hA2AAR agonist function (in words)” value was “hA2AAR agonists” and the EC50 turned out to be 0.0186 µM. The “FITC-Dextran concentration in the brain of SD rats” value with blood-brain barrier (tail vein injection of 2 ml (10 mg/ml FITC-Dextran 10,000 MW + 1 mg/ml compound in PBS, 1:1), brain homogenate supernatant after 30 minutes, average of 6 rats, blank control 0.021) was determined as 0.057 µg/mL.

For the compound `OC[C@H]1O[C@@H](n2cnc3c(N/N=C/c4cncs4)ncnc32)[C@H](O)[C@@H]1O` [Compound 16, (2R,3S,4R,5R)-2-(hydroxymethyl)-5-{6-{2-[(E)-thiazol-5-yl-methylene]hydrazino}-9H-purin-9-yl}tetrahydrofuran-3,4-diol], the melting point is 224 °C. For the same compound, the Ki at A2A adenosine receptor is 0.0158 µM. Also, in series [1], the “hA2AAR agonist function (in words)” value is on record as “hA2AAR agonists” and the EC50 came to 0.0435 µM.
